According to ChEMBL document CHEMBL5625227, “Discovery and optimization of 2,3-diaryl-1,3-thiazolidin-4-one-based derivatives as potent and selective cytotoxic agents with anti-inflammatory activity” (Eur J Med Chem, 2023):
The source made the active and inactive calls. The calls are words filed in the database; no cut-off is given here.

Experiments:
[1] = Selectivity index, ratio of IC50 for cytotoxicity against human MRC5 cells to IC50 for cytotoxicity against human MCF7 cells; settings: MRC5 cells versus MCF7 cells
A2780 = test: Cytotoxicity against human A2780 cells assessed as inhibition in cell growth incubated for 72 hrs by MTT assay; type: functional, cell-based; settings: A2780, 72 h
MCF7 [2] = test: Cytotoxicity against human MCF7 cells assessed as inhibition in cell growth incubated for 72 hrs by MTT assay; type: functional, cell-based; settings: MCF7, 72 h
[3] = Cytotoxicity against human MRC5 cells assessed as inhibition in cell growth incubated for 72 hrs by MTT assay; type: toxicity, cell-based
HT-29 = test: Cytotoxicity against human HT-29 cells assessed as inhibition in cell growth incubated for 72 hrs by MTT assay; type: functional, cell-based; settings: HT-29, 72 h
[4] = Selectivity index, ratio of IC50 for cytotoxicity against human MRC5 cells to IC50 for cytotoxicity against human HT-29 cells; settings: MRC5 cells versus HT-29 cells
[5] = Selectivity index, ratio of IC50 for cytotoxicity against human MRC5 cells to IC50 for cytotoxicity against human A2780 cells; settings: MRC5 cells versus A2780 cells
[6] = Acute ulcerogenic activity in Sprague-Dawley male rat assessed as average severity of ulcers at 50 mg/kg/day, po administered for 3 days; type: toxicity, organism-based; settings: in vivo, 72 h, time 3 day
[7] = Acute ulcerogenic activity in Sprague-Dawley male rat assessed as abnormal structure of the gastric layer by measuring glandular hyperactivation in submucosa at 50 mg/kg/day, po administered for 3 days by hematoxylin and eosin staining method; type: toxicity, organism-based, Stomach; settings: in vivo, 72 h, time 3 day
Rattus norvegicus [8] = test: Antiinflammatory activity against carrageenan-induced paw edema Sprague-Dawley rat model assessed as inhibition of paw edema by measuring edema thickness at 50 mg/kg, po measured after 3 hrs (reference value: 1.41 +/- 0.13 mm); type: functional
[9] = Acute ulcerogenic activity in Sprague-Dawley male rat assessed as incidence of ulcer/10 animal at 50 mg/kg/day, po administered for 3 days; type: toxicity, organism-based; settings: in vivo, 72 h, time 3 day
Rattus norvegicus [10] = test: Antiinflammatory activity against carrageenan-induced paw edema Sprague-Dawley rat model assessed as inhibition of inflammation at 50 mg/kg, po after 1 hr relative to control; type: functional; design: scale not given: the % may be the effect or the level left
[11] = Acute ulcerogenic activity in Sprague-Dawley male rat assessed as average number of ulcers at 50 mg/kg/day, po administered for 3 days; type: toxicity, organism-based; settings: in vivo, 72 h, time 3 day
[12] = Acute ulcerogenic activity in Sprague-Dawley male rat assessed as abnormal structure of the gastric layer by measuring infiltration of macrophages in submucosa at 50 mg/kg/day, po administered for 3 days by hematoxylin and eosin staining method; type: toxicity, organism-based, Stomach; settings: in vivo, 72 h, time 3 day
Rattus norvegicus [13] = test: Antiinflammatory activity against carrageenan-induced paw edema Sprague-Dawley rat model assessed as inhibition of paw edema by measuring edema thickness at 50 mg/kg, po measured after 5 hrs (reference value: 1.39 +/- 0.11 mm); type: functional
[14] = Acute ulcerogenic activity in Sprague-Dawley male rat assessed as abnormal structure of the gastric layer by measuring deeply congested blood vessels and aggregated of inflammatory cells at 50 mg/kg/day, po administered for 3 days by hematoxylin and eosin staining method; type: toxicity, organism-based, Stomach; settings: in vivo, 72 h, time 3 day
[15] = Acute ulcerogenic activity in Sprague-Dawley male rat assessed as ulcer index at 50 mg/kg/day, po administered for 3 days; type: toxicity, organism-based; settings: in vivo, 72 h, time 3 day
[16] = Acute ulcerogenic activity in Sprague-Dawley male rat assessed as abnormal structure of the gastric layer by measuring infiltration of macrophages in lamina propria at 50 mg/kg/day, po administered for 3 days by hematoxylin and eosin staining method; type: toxicity, organism-based, Stomach; settings: in vivo, 72 h, time 3 day
[17] = Acute ulcerogenic activity in Sprague-Dawley male rat assessed as abnormal structure of the gastric layer by measuring infiltration of lymphocytes in lamina propria at 50 mg/kg/day, po administered for 3 days by hematoxylin and eosin staining method; type: toxicity, organism-based, Stomach; settings: in vivo, 72 h, time 3 day
Rattus norvegicus [18] = test: Antiinflammatory activity against carrageenan-induced paw edema Sprague-Dawley rat model assessed as inhibition of paw edema by measuring edema thickness at 50 mg/kg, po measured after 1 hr (reference value: 0.71 +/- 0.03 mm); type: functional
[19] = Acute ulcerogenic activity in Sprague-Dawley male rat assessed as abnormal structure of the gastric layer by measuring inflammatory cells infiltration in lamina propria at 50 mg/kg/day, po administered for 3 days by hematoxylin and eosin staining method; type: toxicity, organism-based, Stomach; settings: in vivo, 72 h, time 3 day
[20] = Acute ulcerogenic activity in Sprague-Dawley male rat assessed as abnormal structure of the gastric layer by measuring infiltration of lymphocytes in submucosa at 50 mg/kg/day, po administered for 3 days by hematoxylin and eosin staining method; type: toxicity, organism-based, Stomach; settings: in vivo, 72 h, time 3 day
Rattus norvegicus [21] = test: Antiinflammatory activity against carrageenan-induced paw edema Sprague-Dawley rat model assessed as inhibition of inflammation at 50 mg/kg, po after 3 hrs relative to control; type: functional; design: scale not given: the % may be the effect or the level left
[22] = molecular target: T1, Prostaglandin G/H synthase 1 (Ovis aries, UniProt P05979); test: Inhibition of ovine COX-1
T1 sequence (P05979 whole entry): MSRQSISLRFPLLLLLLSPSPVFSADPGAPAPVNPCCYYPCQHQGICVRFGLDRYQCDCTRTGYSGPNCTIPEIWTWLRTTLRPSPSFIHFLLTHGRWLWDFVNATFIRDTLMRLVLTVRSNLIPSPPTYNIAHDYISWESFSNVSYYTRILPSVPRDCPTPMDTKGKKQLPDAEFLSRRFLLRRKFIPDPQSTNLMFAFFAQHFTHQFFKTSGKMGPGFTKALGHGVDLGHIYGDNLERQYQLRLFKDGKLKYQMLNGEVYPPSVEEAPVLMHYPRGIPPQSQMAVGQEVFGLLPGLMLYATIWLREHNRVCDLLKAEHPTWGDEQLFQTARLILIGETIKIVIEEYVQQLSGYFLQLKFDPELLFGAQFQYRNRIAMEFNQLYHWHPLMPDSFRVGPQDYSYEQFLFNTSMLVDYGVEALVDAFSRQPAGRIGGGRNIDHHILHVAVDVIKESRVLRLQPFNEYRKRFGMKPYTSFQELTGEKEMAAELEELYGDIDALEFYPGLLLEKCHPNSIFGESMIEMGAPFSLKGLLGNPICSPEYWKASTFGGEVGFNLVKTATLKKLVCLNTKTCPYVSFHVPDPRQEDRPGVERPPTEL

Rattus norvegicus [23] = test: Antiinflammatory activity against carrageenan-induced paw edema Sprague-Dawley rat model assessed as inhibition of inflammation at 50 mg/kg, po after 5 hrs relative to control; type: functional; design: scale not given: the % may be the effect or the level left
Sus scrofa = organism: Sus scrofa; test: Induction of porcine brain tubulin polymerization at 3 uM by fluorescence-based tubulin polymerization assay
THP-1 = test: Cytotoxicity against human THP-1 cells assessed as inhibition in cell growth; type: functional, cell-based
MCF7 [24] = test: Cytotoxicity against human MCF7 cells assessed as inhibition in cell growth; type: functional, cell-based
HCT-116 = test: Cytotoxicity against human HCT-116 cells assessed as inhibition in cell growth; type: functional, cell-based
PC-3 = test: Cytotoxicity against human PC-3 cells assessed as inhibition in cell growth; type: functional, cell-based
HepG2 = test: Cytotoxicity against human HepG2 cells assessed as inhibition in cell growth; type: functional, cell-based

| Structure (SMILES) | selectivity ratio at 72 h [1] | IC50 (A2780) [µM] | IC50 (MCF7 [2]) [µM] | IC50 at 72 h [3] [µM] | IC50 (HT-29) [µM] | selectivity ratio at 72 h [4] | selectivity ratio at 72 h [5] | other results |
| --- | --- | --- | --- | --- | --- | --- | --- | --- |
| O=C(COc1ccc(N2C(=O)CSC2c2ccc(Cl)cc2)cc1)Nc1ccccc1 (stereo not given) | 1.13 | 2.6 | 1.31 | 1.48 | 0.44 | 3.36 | 0.57 |  |
| COc1ccc2c(c1)c(CC(=O)O)c(C)n2C(=O)c1ccc(Cl)cc1 [INDOMETHACIN] |  |  |  |  |  |  |  | Activity [6]: 1; Activity [7]: Toxic; Activity (Rattus norvegicus [8]): 0.22 mm; Activity [9]: 10%; Activity (Rattus norvegicus [10]): 42.25%; Activity [11]: 11.33; Activity [12]: Toxic; Activity (Rattus norvegicus [13]): 0.24 mm; Activity [14]: Toxic; UI [15]: 22.33; Activity [16]: Toxic; Activity [17]: Toxic; Activity (Rattus norvegicus [18]): 0.41 mm; Activity [19]: Toxic; Activity [20]: Toxic |
| Cc1ccc(C2SCC(=O)N2c2ccc(OCC(=O)Nc3ccccc3)cc2)cc1 (stereo not given) | 0.77 | 2.81 | 1.15 | 0.89 | 1.13 | 0.79 | 0.32 |  |
| COc1ccc(NC(=O)COc2ccc(N3C(=O)CSC3c3ccc(C)cc3)cc2)cc1 (stereo not given) | 1.17 | 4.7 | 2.47 | 2.89 | 5.34 | 0.54 | 0.61 | Activity (Rattus norvegicus [8]): 0.79 mm; Activity (Rattus norvegicus [10]): 15.3%; Activity (Rattus norvegicus [13]): 0.73 mm; Activity (Rattus norvegicus [21]): 32.7%; Activity (Rattus norvegicus [18]): 0.61 mm; IC50 [22]: 8.37 µM; Activity (Rattus norvegicus [23]): 47.48% |
| CC(=O)O[C@H]1C(=O)[C@@]2(C)[C@H]([C@H](OC(=O)c3ccccc3)[C@]3(O)C[C@H](OC(=O)[C@H](O)[C@@H](NC(=O)c4ccccc4)c4ccccc4)C(C)=C1C3(C)C)[C@]1(OC(C)=O)CO[C@@H]1C[C@@H]2O |  |  |  |  |  |  |  | Activity (Sus scrofa): Active |
| O=C(COc1ccc(N2C(=O)CSC2c2ccccc2)cc1)Nc1ccc(Cl)cc1 (stereo not given) | 1.79 | 17 | 5.96 | 10.7 | 3.53 | 3.02 | 0.63 | Activity (Rattus norvegicus [8]): 0.63 mm; Activity (Rattus norvegicus [10]): 15.3%; Activity (Rattus norvegicus [13]): 0.53 mm; Activity (Rattus norvegicus [21]): 32.7%; Activity (Rattus norvegicus [18]): 0.54 mm; IC50 [22]: 36.5 µM; Activity (Rattus norvegicus [23]): 47.48% |
| O=C(COc1ccc(N2C(=O)CSC2c2ccccc2)cc1)Nc1ccccc1 (stereo not given) | 1.54 | 7.07 | 2.39 | 3.69 | 4.81 | 0.77 | 0.52 |  |
| COc1ccc(N2C(=O)CSC2c2cc(OC)c(OC)c(OC)c2)cc1 (stereo not given) |  |  |  |  |  |  |  | IC50 (THP-1): 1.21 µM |
| COc1ccc(NC(=O)COc2ccc(N3C(=O)CSC3c3ccc(Cl)cc3)cc2)cc1 (stereo not given) | 0.81 | 1.28 | 1.24 | 1 | 0.78 | 1.28 | 0.78 |  |
| Cc1ccc(NC(=O)COc2ccc(N3C(=O)CSC3c3ccc(C)cc3)cc2)cc1 (stereo not given) | 2.34 | 2.82 | 1.33 | 3.11 | 0.7 | 4.44 | 1.1 |  |
| COc1cc2c(c(OC)c1OC)-c1ccc(OC)c(=O)cc1[C@@H](NC(C)=O)CC2 [COLCHICINE] |  | 0.023 |  |  | 5.19 |  |  |  |
| O=C(COc1ccc(N2C(=O)CSC2c2ccc(Cl)cc2)cc1)Nc1ccc(Cl)cc1 (stereo not given) | 2.83 | 7.84 | 2.33 | 6.6 | 1.32 | 5 | 0.84 |  |
| O=C(COc1ccc(N2C(=O)CSC2c2ccccc2)cc1)Nc1ccc(F)cc1 (stereo not given) | 4.89 | 5.32 | 2.75 | 13.5 | 5.13 | 2.62 | 2.53 |  |
| Cc1ccc(NC(=O)COc2ccc(N3C(=O)CSC3c3ccc(Cl)cc3)cc2)cc1 (stereo not given) | 1.53 | 1.64 | 2.08 | 3.18 | 0.89 | 3.57 | 1.94 |  |
| COc1cccc2c1C(=O)c1c(O)c3c(c(O)c1C2=O)C[C@@](O)(C(=O)CO)C[C@@H]3O[C@H]1C[C@H](N)[C@H](O)[C@H](C)O1 [DOXORUBICIN] |  | 5.12 |  | 2.5 | 1.5 |  |  |  |
| COc1cc(NC(=O)COc2ccc(N3C(=O)CSC3c3ccccc3)cc2)cc(OC)c1OC (stereo not given) | 4.13 | 2 | 2.27 | 9.38 | 3.21 | 2.92 | 4.69 |  |
| CC(=O)c1ccc(NC(=O)COc2ccc(C3SCC(=O)N3c3ccccc3)cc2)cc1 (stereo not given) |  |  |  |  |  |  |  | IC50 (MCF7 [24]): 18.2 µM; IC50 (HCT-116): 18.2 µM; IC50 (PC-3): 18.2 µM; IC50 (HepG2): 18.2 µM |
| COc1ccc(NC(=O)COc2ccc(N3C(=O)CSC3c3ccccc3)cc2)cc1OC (stereo not given) | 4.19 | 1.28 | 1.76 | 7.37 | 2.15 | 3.43 | 5.76 |  |
| Cc1ccc(NC(=O)COc2ccc(N3C(=O)CSC3c3ccccc3)cc2)cc1 (stereo not given) | 1.59 | 1.63 | 1.79 | 2.85 | 2.11 | 1.35 | 1.75 | Activity (Rattus norvegicus [8]): 0.67 mm; Activity (Rattus norvegicus [10]): 15.3%; Activity (Rattus norvegicus [13]): 0.69 mm; Activity (Rattus norvegicus [21]): 32.7%; Activity (Rattus norvegicus [18]): 0.57 mm; IC50 [22]: 4.55 µM; Activity (Rattus norvegicus [23]): 47.48% |
| O=C(COc1ccc(N2C(=O)CSC2c2ccc(Cl)cc2)cc1)Nc1ccc(F)cc1 (stereo not given) | 5.97 | 11 | 1.46 | 8.72 | 0.64 | 13.6 | 0.79 |  |
